{
  "source": "patent US20140186456A1",
  "about": "“Tripartite Bioactive Composition Providing Anti-Oxidant and Anti-Inflammatory Effects with Immune System and Stem Cell Production Enhancement” (priority 2011, published 2014)",
  "origin": "cited, not measured here",
  "tested_on": "organisms and animal species",
  "data": [
    {"smiles": "Oc1ccc(/C=C/c2cc(O)cc(O)c2)cc1", "note": "[resveratrol, 3,5,4′-trihydroxy-trans-stilbene]", "values": [
      {"measurement": "increase of lifespan", "result": "20-40%"}
    ]}
  ]
}
